Data published in US8247404B2, “Derivatives of 2-oxoalkyl-1-piperazin-2-one, preparation method thereof and therapeutic use of same” (Sanofi, priority 2008, dated 2012).
Structures can show the parent of a compound that is named as a salt.

How the values were obtained:
[1] = tested on: human neuroblastoma strains SH-SY-5Y and SK-N-BE Bep 75; assay: Measurement of apoptosis (NGF-induced, cell death detection ELISA); format: cell-based; conditions: SH-SY5Y, NGF 10 ng/ml, cell strain not given, read-out: IC50, inhibitory activity on NGF-induced apoptosis
Method: The SH-SY-5Y strain (human neuroblastoma) is cultured conventionally in a DMEM culture medium (Dulbecco's Modified Eagle's Medium) (Gibco BRL, France) containing FCS (5%) (foetal calf serum) (Boehringer Mannheim, Germany), sodium pyruvate (1 mM) and glutamine (4 mM) in culture flasks coated with collagen (Becton Dickinson, France).
(§1) The SK-N-BE parent strain (human neuroblastoma) and the Bep 75 clone, stably expressing the whole form of the human p75^NTRreceptor (SK-N-BE Bep 75) are cultured conventionally in a RPMI culture medium containing FCS (5%), sodium pyruvate (1 mM) and glutamine (4 mM). For the SK-N-BE Bep 75 cells, hygromycin (200 μl/20 ml of medium) is added as selection agent.
The cells (human neuroblastoma strains SH-SY-5Y and SK-N-BE Bep 75) are placed in 35 mm diameter Petri dishes (Biocoat collagen I), (10^5cells/well) in an appropriate culture medium containing 5% of FCS for 24 h. […] The degrees of apoptosis are measured 48 hours after the treatments in the case of the SH-SY-5Y strain, and 24 hours after the treatments in the case of the SK-N-BE Bep 75 strain, by quantification of the DNA fragment-associated cytoplasmic histones (cell death detection ELISA, Boehringer Mannheim, Germany). The degrees of apoptosis are expressed as amount of oligonucleosomes/10^5cells. […]

p75NTR receptor [2] = biological target: T1, p75NTR receptor (Homo sapiens, UniProt P08138); assay: Dimerization of the p75NTR receptor independently of its ligand (soluble p75NTR-alkaline phosphatase binding to SK-N-BE Bep 75 cells); set-up: the Bep 75 clone, stably expressing the whole form of the human p75^NTRreceptor; a soluble form of the p75^NTRreceptor (extracellular part of the receptor); expressed in transfected cells; host or cells: SK-N-BE Bep 75 cells (membrane receptor); transiently transfected HEK293 cells (secreted soluble p75NTR-alkaline phosphatase, used as culture supernatant); conditions: soluble p75NTR-alkaline phosphatase 10 nM, 1 h preincubation at 37° C.
T1 sequence (P08138 29-427): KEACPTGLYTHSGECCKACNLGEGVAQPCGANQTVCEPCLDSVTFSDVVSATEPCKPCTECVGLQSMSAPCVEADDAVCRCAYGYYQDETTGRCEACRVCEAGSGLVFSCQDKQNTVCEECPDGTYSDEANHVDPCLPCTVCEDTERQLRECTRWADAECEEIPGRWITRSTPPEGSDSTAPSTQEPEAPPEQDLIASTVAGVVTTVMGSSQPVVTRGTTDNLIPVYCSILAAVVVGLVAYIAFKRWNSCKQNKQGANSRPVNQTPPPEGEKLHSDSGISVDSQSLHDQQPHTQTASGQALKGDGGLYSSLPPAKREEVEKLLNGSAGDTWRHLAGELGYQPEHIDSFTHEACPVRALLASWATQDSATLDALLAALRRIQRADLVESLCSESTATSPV
Method: as §1
Study of the dimerization of the p75^NTRreceptor independently of its ligand
The p75^NTRreceptor dimerization study is carried out on a cell suspension of the SK-N-BE Bep 75 strain. The cells (2.5 10^4cells/well) are placed in wells (96-well plate) for 24 h, and then preincubated for 1 h at 37° C. in the presence or absence of the compounds according to the invention. Supernatant is then added, this supernatant being derived from the culture of HEK293 human cells of renal origin expressing, after 48 h of transfection, and secreting a soluble form of the p75^NTRreceptor (extracellular part of the receptor) coupled to an alkaline phosphatase, at the final concentration of 10 nM. The quantification of the specific binding of the soluble p75^NTRreceptor to the receptor present on SK-N-BE Bep 75 cells is determined by measuring the alkaline phosphatase enzymatic activity after incubation of the cells for 1 hour at 37° C. in the presence of the supernatant. After filtration and transfer of the filters into 24-well plates, the alkaline phosphatase activity is determined by adding CDP-Star chemiluminescent substrate (ready-to-use, Roche).

p75NTR receptor [3] = biological target: T1, p75NTR receptor; assay: Binding of 125I NGF to the p75NTR receptor (competition, SK-N-BE Bep 75 cell suspension); set-up: the Bep 75 clone, stably expressing the whole form of the human p75^NTRreceptor; expressed in transfected cells; host or cells: SK-N-BE Bep 75 (human neuroblastoma clone, hygromycin selection); conditions: SK-N-BE Bep 75 cells; 125I NGF 0.3 nM
Method: as §1
Study of the binding of the ^125I NGF to the p75^NTRreceptor
The NGF binding study (nerve grown factor radiolabelled with iodine-125, Amersham—2000 Ci/mmol) is carried out on a cell suspension of the SK-N-BE Bep 75 strain in accordance with the method described by Weskamp (Neuron, 1991, 6, 649-663). The nonspecific binding is determined by measuring the total binding after one hour of pre-incubation with the cells at 37° C. in the presence of non-radiolabelled NGF (1 μM). The specific binding is calculated by the difference between the total binding measurement and the non-specific binding measurement. The competition experiments are carried out using an iodinated NGF (^125I NGF) concentration of 0.3 nM.

Structure (SMILES) | melting point | IC50 (p75NTR receptor [2]) | IC50 (p75NTR receptor [3]) | IC50 [1]
Cc1ccc(N2CCN(CC(=O)N3CC=C(c4ccc(Cl)c(C(F)(F)F)c4)CC3)CC2=O)nc1 (as salt: HCl) [Compound 2, 4-{2-[4-(4-chloro-3-trifluoromethylphenyl)-3,6-dihydro-2H-pyridin-1-yl]-2-oxoethyl}-1-(5-methylpyridin-2-yl)piperazin-2-one] | 236 to 239 °C | – | – | –
O=C(CN1CCN(c2ccccn2)C(=O)C1)N1CC=C(c2ccc(Cl)c(C(F)(F)F)c2)CC1 [Compound 5, 4-{2-[4-(4-chloro-3-trifluoromethylphenyl)-3,6-dihydro-2H-pyridin-1-yl]-2-oxoethyl}-1-pyridin-2-ylpiperazin-2-one] | – | – | – | 52 nM
Cc1ccc(N2CCN(CC(=O)N3CC=C(c4ccc(Cl)c(C(F)(F)F)c4)CC3)CC2=O)nc1 [Compound 2, 4-{2-[4-(4-chloro-3-trifluoromethylphenyl)-3,6-dihydro-2H-pyridin-1-yl]-2-oxoethyl}-1-(5-methylpyridin-2-yl)piperazin-2-one] | – | 3.88 nM | – | –
O=C(CN1CCN(c2ccc(C(F)(F)F)cn2)C(=O)C1)N1CC=C(c2ccc(Cl)c(C(F)(F)F)c2)CC1 [Compound 1, 4-{2-[4-(4-chloro-3-trifluoromethylphenyl)-3,6-dihydro-2H-pyridin-1-yl]-2-oxoethyl}-1-(5-trifluoromethylpyridin-2-yl)piperazin-2-one] | – | 1.34 nM | 5.2 nM | 1.61 nM
O=C(CN1CCN(c2ccc(C(F)(F)F)cn2)C(=O)C1)N1CC=C(c2ccc(Cl)c(C(F)(F)F)c2)CC1 (as salt: HCl) [Compound 1, 4-{2-[4-(4-chloro-3-trifluoromethylphenyl)-3,6-dihydro-2H-pyridin-1-yl]-2-oxoethyl}-1-(5-trifluoromethylpyridin-2-yl)piperazin-2-one] | 210 to 211 °C | – | – | –

Second part, led by results:

melting point | IC50 (p75NTR receptor [2]) | IC50 (p75NTR receptor [3]) | Structure (SMILES) | IC50 [1]
141 to 143 °C | 0.11 nM | 0.1 nM | O=C(CN1CCN(c2ccc(C(F)(F)F)cn2)C(=O)C1)N1CC=C(c2ccc(Cl)cc2)CC1 [Compound 3, 4-{2-[4-(4-chlorophenyl)-3,6-dihydro-2H-pyridin-1-yl]-2-oxoethyl}-1-(5-trifluoromethylpyridin-2-yl)piperazin-2-one] | –
160 to 163 °C | – | – | O=C(CN1CCN(c2ccccn2)C(=O)C1)N1CC=C(c2ccc(Cl)c(C(F)(F)F)c2)CC1 (as salt: HCl) [Compound 5, 4-{2-[4-(4-chloro-3-trifluoromethylphenyl)-3,6-dihydro-2H-pyridin-1-yl]-2-oxoethyl}-1-pyridin-2-ylpiperazin-2-one] | –
